The target of this test is PIK3CD (Human) (UniProt O00329). Briefly: Assessment of PIK3CD Kinase Activity.

This passage reports IC50 results from the Kinase Knowledgebase extract (Sharma et al. 2016).

Some results are limits rather than exact numbers.

PIK3CD (Human), sequence (O00329 whole entry, looked up): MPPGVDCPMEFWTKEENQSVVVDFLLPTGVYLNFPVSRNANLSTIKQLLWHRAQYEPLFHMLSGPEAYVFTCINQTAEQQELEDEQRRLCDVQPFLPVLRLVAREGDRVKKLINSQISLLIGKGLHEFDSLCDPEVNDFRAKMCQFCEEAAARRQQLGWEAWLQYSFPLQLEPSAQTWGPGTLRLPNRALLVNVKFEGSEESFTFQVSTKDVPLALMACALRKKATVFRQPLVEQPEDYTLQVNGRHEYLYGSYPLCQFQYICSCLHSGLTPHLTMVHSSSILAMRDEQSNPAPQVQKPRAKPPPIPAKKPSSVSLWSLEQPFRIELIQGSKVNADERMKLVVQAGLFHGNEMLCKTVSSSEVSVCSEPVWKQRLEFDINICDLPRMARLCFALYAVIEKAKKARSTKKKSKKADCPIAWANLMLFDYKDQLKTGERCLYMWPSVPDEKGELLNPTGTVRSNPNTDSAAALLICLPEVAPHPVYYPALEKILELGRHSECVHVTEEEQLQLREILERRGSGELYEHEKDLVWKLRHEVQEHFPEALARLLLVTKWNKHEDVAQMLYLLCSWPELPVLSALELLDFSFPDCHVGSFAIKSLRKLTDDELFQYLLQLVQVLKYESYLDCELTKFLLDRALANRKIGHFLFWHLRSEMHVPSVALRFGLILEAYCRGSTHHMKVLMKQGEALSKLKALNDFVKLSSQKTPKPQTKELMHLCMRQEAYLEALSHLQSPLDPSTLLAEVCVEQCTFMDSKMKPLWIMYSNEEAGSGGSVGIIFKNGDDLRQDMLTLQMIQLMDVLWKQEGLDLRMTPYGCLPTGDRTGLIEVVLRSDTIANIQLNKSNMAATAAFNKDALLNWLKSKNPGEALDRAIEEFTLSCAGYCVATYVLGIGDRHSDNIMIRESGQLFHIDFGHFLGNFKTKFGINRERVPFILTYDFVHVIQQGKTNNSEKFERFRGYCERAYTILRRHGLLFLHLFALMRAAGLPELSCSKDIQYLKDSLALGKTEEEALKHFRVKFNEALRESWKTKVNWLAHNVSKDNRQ

`Cc1c(-c2nc3c(N4CCC(n5c(=O)[nH]c6c(F)cccc65)CC4)ncnc3n2C)cnn1C` came in with a concentration for half-maximal inhibition (IC50) below 0.05 µM.

For `Cc1cccc(-n2ncc3c2CCN(c2ncnc4c2nc(C(=O)NCC2CC2)n4C)C3)c1`, the half-inhibitory concentration (IC50) lay within 0.5 to 1.5 µM.

As for `CCCn1cc(-c2nc3c(N4CCC(n5c(=O)[nH]c6ccccc65)CC4)ncnc3n2CC)cn1`, the IC50 was below 0.05 µM.

Molecule `Cn1c(C(=O)N2CC[C@@H](F)C2)nc2c(N3CCC(n4c(=O)[nH]c5ccccc54)CC3)ncnc21` displayed an IC50 of 0.05 to 0.25 µM.

As to `CCn1c(-c2cn[nH]c2)nc2c(N3CCC(n4c(=O)[nH]c5ccccc54)CC3)ncnc21`, the concentration for half-maximal inhibition (IC50) was below 0.05 µM.

The molecule `CC1CN(c2ncnc3c2nc(C(=O)NCC2CC2)n3C)CCC1n1c(=O)[nH]c2ccccc21` (centres undefined) yielded an IC50 of 0.05 to 0.25 µM.

In the case of `CN(C)C1CN(C(=O)c2nc3c(N4CCC5(CC4)C(=O)NCN5c4ccccc4)ncnc3n2C)C1`, the 50% inhibitory concentration (IC50) was 0.5 to 1.5 µM.

In the case of `Cn1c(C(=O)NCC2CC2)nc2c(N3CCC(C4C(=O)Nc5ccccc54)CC3)ncnc21` (centres undefined), the IC50 lay within 0.25 to 0.5 µM.

`COc1cccc2c1[nH]c(=O)n2C1CCN(c2ncnc3c2nc(C(=O)NCC2CC2)n3C)CC1` registered an IC50 of 0.05 to 0.25 µM.

`Cc1ccc(-n2ncc3c2CCN(c2ncnc4c2nc(C(=O)NCC2CC2)n4C)C3)c(C)c1` yielded a concentration for half-maximal inhibition (IC50) of 0.5 to 1.5 µM.

The molecule `COc1ccc(S(=O)(=O)N2CCN(c3ncnc4c3nc(-c3cnn(C)c3)n4C)CC2)cc1` returned an IC50 of 0.5 to 1.5 µM.

In the case of `Cn1c(C(=O)NCC2CC2)nc2c(N3CCC(n4c(=O)[nH]c5ccccc54)CC3)ncnc21`, the half-inhibitory concentration (IC50) lay in the range of 0.05 to 0.25 µM.

`Cc1ccccc1-n1ncc2c1CCN(c1ncnc3c1nc(C(=O)NCC1CC1)n3C)C2`: the IC50 was in the range of 0.5 to 1.5 µM.

`Cn1c(-c2cn[nH]c2)nc2c(N3CCC(n4c(=O)[nH]c5ccccc54)CC3)ncnc21`: the IC50 is below 0.05 µM.

Turning to `Cc1cccc(C)c1-n1ncc2c1CCN(c1ncnc3c1nc(C(=O)NCC1CC1)n3C)C2`, the IC50 fell in the range of 0.5 to 1.5 µM.

Consider `CN1CCN(c2cccc3c2[nH]c(=O)n3C2CCN(c3ncnc4c3nc(C(=O)NCC3CC3)n4C)CC2)CC1`, for which the IC50 lay within 0.05 to 0.25 µM.

The molecule `Cn1c(C(=O)NCC2CC2)nc2c(N3CCC(n4c(N)nc5ccccc54)CC3)ncnc21` gave an IC50 of 0.05 to 0.25 µM.

For `CN(C)c1ccc(-c2nc3c(N4CCC(n5c(=O)[nH]c6ccccc65)CC4)ncnc3n2C)cn1`, the IC50 is below 0.05 µM.

Molecule `Cn1c(C(=O)NCC2CC2)nc2c(N3CCc4c(cnn4-c4ccccc4)C3)ncnc21` came in with an IC50 of 0.25 to 0.5 µM.
